In US20080255060A1, “Ester Linked Macrolides Useful For The Treatment of Microbial Infections” (priority 2004, published 2008) one finds MIC data, which are given here for three molecules.

What all share (assay): MIC, standard microtiter broth serial dilution test
Holding throughout (format): cell-based

In one experiment the test system is E. faecalis ATCC 0004. The note with it: Enterococcus faecalis, ATCC0004.
For the next experiment, the system named is S. pyogenes 0542. The conditions noted are these: Streptococcus pyogenes.
In experiment [1] the test system is erythromycin resistant strains of Streptococcus pyogenes.
The test system of the next experiment is S. pneumoniae 0541. The conditions noted are these: Streptococcus pneumoniae.
For experiment [2], the system named is erythromycin resistant strains of Streptococcus pneumoniae.
In experiment [3] the test system is S. aureus Smith ATCC 0329. The note with it: Staphylococcus aureus, ATCC0329.
Another experiment concerns H. influenzae ATCC 0529. The conditions noted are these: Haemophilus influenzae, ATCC0529.
The subject of a further experiment is M. catarrhalis ATCC 0324. The conditions noted are these: Moraxella catarrhalis, ATCC0324.

Regarding `CC[C@H]1OC(=O)[C@H](C)[C@@H](O[C@H]2C[C@@](C)(OC)[C@@H](OC(=O)CCOCCOCCNc3ccc4c(c3)c(=O)c(C(=O)O)cn4C3CC3)[C@H](C)O2)[C@H](C)[C@@H](O[C@@H]2O[C@H](C)C[C@H](N(C)C)[C@H]2O)[C@](C)(O)C[C@@H](C)CN(C)[C@H](C)[C@@H](O)[C@]1(C)O` [Example 11, 4″-O-(3-{2-[2-(3-Carboxy-1-cyclopropyl-4-oxo-1,4-dihydro-quinolin-6-ylamino)-ethoxy]-ethoxy}-propionyl)-azithromycin], the MIC against E. faecalis ATCC 0004 is at most 1 µg/mL; against S. pyogenes 0542, at most 1 µg/mL; in experiment [1], at most 0.25 µg/mL; in the experiment on S. pneumoniae 0541 it was at most 1 µg/mL; in experiment [2], at most 0.25 µg/mL; in experiment [3] it was at most 1 µg/mL. In addition, the MIC against H. influenzae ATCC 0529 and in the experiment on M. catarrhalis ATCC 0324 was at most 2 µg/mL each time.
Take `CC[C@H]1OC(=O)[C@H](C)[C@@H](O[C@H]2C[C@@](C)(OC)[C@@H](OC(=O)CCOCCOCCNc3cc4c(=O)c(C(=O)O)cn(C(C)C)c4cc3Cl)[C@H](C)O2)[C@H](C)[C@@H](O[C@@H]2O[C@H](C)C[C@H](N(C)C)[C@H]2O)[C@](C)(O)C[C@@H](C)CN(C)[C@H](C)[C@@H](O)[C@]1(C)O` [Example 31, 4″-O-(3-{2-[2-(3-carboxy-7-chloro-1-isopropyl-4-oxo-1,4-dihydro-quinoline-6-ylamino)-ethoxy]-ethoxy}-propionyl)-azithromycin]: the MIC against E. faecalis ATCC 0004 is at most 1 µg/mL; against S. pyogenes 0542 it was at most 1 µg/mL; in experiment [1], at most 0.25 µg/mL; with S. pneumoniae 0541 it was at most 1 µg/mL; in experiment [2] it was at most 0.25 µg/mL; in experiment [3], at most 1 µg/mL. The MIC against H. influenzae ATCC 0529 and against M. catarrhalis ATCC 0324 was at most 2 µg/mL throughout.
For `CC[C@H]1OC(=O)[C@H](C)[C@@H](OC2C[C@@](C)(OC)[C@@H](OC(=O)CCNCCOCCCc3ccc4c(c3)c(=O)c(C(=O)O)cn4CC)[C@H](C)O2)[C@H](C)[C@@H](OC2O[C@H](C)C[C@H](N(C)C)[C@H]2O)[C@](C)(OC)C[C@@H](C)C(=O)[C@H](C)[C@@H](O)[C@]1(C)O` (stereo partly drawn) [Example 37, 4″-O-(3-{2-[3-(3-Carboxy-1-ethyl-4-oxo-1,4-dihydro-quinolin-6-yl)-propoxy]-ethylamino}-propionyl)-6-O-methyl-erythromycin A], the MIC against E. faecalis ATCC 0004 is at most 1 µg/mL; in the experiment with S. pyogenes 0542, at most 1 µg/mL; in experiment [1] it was at most 0.25 µg/mL; in the experiment on S. pneumoniae 0541 it was at most 1 µg/mL; in experiment [2], at most 0.25 µg/mL; in experiment [3], at most 1 µg/mL. Further, the MIC against H. influenzae ATCC 0529 and against M. catarrhalis ATCC 0324 was at most 2 µg/mL in each case.
